{"source": "patent US8058242B2", "about": "“Chimeric proteins with natriuretic activity” (The University of Queensland, priority 2004, dated 2011)", "key": {"[1]": {"molecular_target": "T1, Natriuretic Peptide Receptor-A (NPR-A) signaling in MDCK cells (Canis lupus familiaris, UniProt A0A8I3MHU3)", "T1 sequence (A0A8I3MHU3 32-1060)": "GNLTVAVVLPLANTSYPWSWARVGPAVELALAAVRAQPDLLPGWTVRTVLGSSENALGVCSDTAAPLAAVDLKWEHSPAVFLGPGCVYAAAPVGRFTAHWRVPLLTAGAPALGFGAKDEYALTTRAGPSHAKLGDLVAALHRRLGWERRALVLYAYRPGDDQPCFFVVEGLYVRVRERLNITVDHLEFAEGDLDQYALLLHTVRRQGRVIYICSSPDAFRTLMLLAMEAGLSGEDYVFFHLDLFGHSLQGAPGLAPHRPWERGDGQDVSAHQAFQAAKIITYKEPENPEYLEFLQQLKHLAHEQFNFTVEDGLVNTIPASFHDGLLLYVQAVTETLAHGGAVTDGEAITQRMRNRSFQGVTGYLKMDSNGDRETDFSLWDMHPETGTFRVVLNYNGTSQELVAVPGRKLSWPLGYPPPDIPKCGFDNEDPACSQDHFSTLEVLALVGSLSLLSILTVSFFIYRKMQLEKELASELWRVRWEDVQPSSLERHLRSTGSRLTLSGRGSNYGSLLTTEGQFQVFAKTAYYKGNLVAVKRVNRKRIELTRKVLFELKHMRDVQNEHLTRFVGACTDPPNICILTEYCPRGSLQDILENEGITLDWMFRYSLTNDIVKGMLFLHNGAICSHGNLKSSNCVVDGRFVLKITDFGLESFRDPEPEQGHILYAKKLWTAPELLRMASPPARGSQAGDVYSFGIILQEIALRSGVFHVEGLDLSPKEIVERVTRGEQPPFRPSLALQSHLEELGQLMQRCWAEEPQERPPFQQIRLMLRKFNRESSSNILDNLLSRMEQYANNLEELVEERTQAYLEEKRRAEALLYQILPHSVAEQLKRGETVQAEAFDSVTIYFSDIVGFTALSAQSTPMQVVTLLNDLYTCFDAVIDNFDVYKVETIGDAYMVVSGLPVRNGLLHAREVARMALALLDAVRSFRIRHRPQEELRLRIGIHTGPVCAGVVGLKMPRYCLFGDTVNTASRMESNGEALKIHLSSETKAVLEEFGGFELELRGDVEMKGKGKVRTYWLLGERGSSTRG", "type": "cell-based, canine", "conditions": "stimulation of cGMP accumulation in MDCK cells"}, "[2]": {"tested_on": "conscious rabbits", "assay": "Blood pressure and heart rate in conscious rabbits, intravenous infusion dose-response (Example 8)", "conditions": "for Diastolic BP, mean difference from control / HR, mean difference from control / Mean BP, mean difference from control / Systolic BP, mean difference from control: 45 min"}, "[3]": {"tested_on": "endothelium-intact aortic rings (NPR-C mediated)", "assay": "Aortic ring relaxation, endothelium-intact rings pre-contracted with 40 mM KCl (Example 3)", "design": "species or system rat", "conditions": "endothelium-intact rat aortas pre-contracted with 40 mM KCl; peptide 0.1 μM", "protocol": "(§1) Male Sprague Dawley rats were killed and the descending thoracic aorta rapidly removed and flushed with physiological solution. After being cleared of adhering fat and connective tissue, 5 mm rings were mounted under 10 g resting tension, between two stainless steel hooks, in organ baths (37° C.) containing carbogenated (95% O2 and 5% CO2) physiological salt solution of the following composition (mM): NaCl, 118.4; NaHCO3, 25; glucose, 11; KCl, 4.7; MgSO4, 1.2; KH2PO4, 1.2 and CaCl2, 2.5. The lower hook was attached to a tissue holder and the upper hook to a force displacement transducer (Grass FTO3). Where indicated endothelial cells were removed by gentle rubbing of the intimal surface with a wire. To confirm the presence or absence of endothelial cells, tissues were precontracted with a sub-maximal concentration of phenylephrine (0.3 μM) and the response to acetylcholine (ACh, 10 μM) observed. Ach-induced relaxation greater than 80% of maximum indicated the presence of endothelium; whereas Ach-induced relaxation less than 10% indicated the absence of endothelium. Ring preparations under resting tension were conditioned by two contraction/relaxation cycles with 40 mM KCl, contracted by a third application of 40 mM KCl and then relaxed with different doses of the venom peptides. Responses were expressed as a percentage relaxation of the precontraction by KCl."}, "[4]": {"tested_on": "endothelium-denuded aortic rings (GC-A mediated)", "assay": "Aortic ring relaxation, endothelium-denuded rings pre-contracted with 40 mM KCl (Example 3)", "design": "species or system rat", "conditions": "endothelium-denuded rat aortas pre-contracted with 40 mM KCl; peptide 0.1 μM", "protocol": "as §1"}, "[5]": {"molecular_target": "T2, Plasmin (Homo sapiens, UniProt P00747)", "T2 construct": "with 500 ng Endopeptidase (NEP) or 10 μg Plasmin", "T2 sequence (P00747 97-580 partner limits assumed, species assumed)": "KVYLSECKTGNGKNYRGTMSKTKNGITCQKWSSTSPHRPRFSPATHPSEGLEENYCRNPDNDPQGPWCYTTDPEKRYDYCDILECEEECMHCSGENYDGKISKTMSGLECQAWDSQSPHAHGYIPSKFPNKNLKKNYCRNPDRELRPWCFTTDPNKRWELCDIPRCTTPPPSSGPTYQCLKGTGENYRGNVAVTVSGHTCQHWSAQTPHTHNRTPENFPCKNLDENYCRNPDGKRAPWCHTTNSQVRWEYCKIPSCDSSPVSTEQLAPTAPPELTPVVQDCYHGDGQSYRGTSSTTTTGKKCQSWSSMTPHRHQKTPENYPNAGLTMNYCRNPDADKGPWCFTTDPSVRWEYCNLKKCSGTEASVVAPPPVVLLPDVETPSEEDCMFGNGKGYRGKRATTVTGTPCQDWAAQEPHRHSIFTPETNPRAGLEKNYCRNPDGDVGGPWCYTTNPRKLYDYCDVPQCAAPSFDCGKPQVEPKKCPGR", "T2 sequence (P00747 581-810 limits assumed, species assumed)": "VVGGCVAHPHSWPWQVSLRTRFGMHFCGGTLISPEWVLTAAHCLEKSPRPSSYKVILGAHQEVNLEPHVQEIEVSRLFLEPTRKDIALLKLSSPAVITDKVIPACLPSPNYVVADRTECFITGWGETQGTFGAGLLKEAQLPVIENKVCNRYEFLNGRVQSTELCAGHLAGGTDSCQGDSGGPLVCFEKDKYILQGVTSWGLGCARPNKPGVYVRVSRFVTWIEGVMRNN", "assay": "Stability to enzymatic degradation by plasmin (Examples 7, 16)", "type": "in vitro ADME", "conditions": "plasmin, 37° C.", "method_in_brief": "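Peptide (100 μl of 500 μM) was incubated at 37 °C in 100 mM Tris/HCl, 150 mM NaCl, pH 7.2-7.4 with 500 ng NEP or 10 μg plasmin. Samples were taken from 5 min to 24 h and heat-quenched at 100 °C for 4 min. Remaining peptide was measured by RP-HPLC.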"}, "[6]": {"conditions": "after 1 hour recovery period, Table 10A"}, "[7]": {"conditions": "average of the 3 doses 1.0, 2.0, 4.0 μg/kg/min"}}, "note": "Positions of bridges follow the written chain, without caps; N, C: chain ends. Residues, ends and D or L forms follow the SMILES beside them."}
{"smiles": "CC[C@H](C)[C@@H]1NC(=O)[C@H](CCCCN)NC(=O)[C@H](Cc2c[nH]cn2)NC(=O)CNC(=O)[C@H](Cc2ccccc2)NC(=O)[C@@H](NC(=O)[C@@H]2CCCN2C(=O)[C@H](CC(=O)O)NC(=O)[C@H](Cc2ccc(O)cc2)NC(=O)[C@H](CCCCN)NC(=O)[C@@H](NC(=O)[C@@H](N)CCC(=O)O)C(C)C)CSSC[C@@H](C(=O)N2CCC[C@H]2C(=O)N[C@@H](CO)C(=O)N[C@@H](CC(C)C)C(=O)N[C@@H](CCCNC(=N)N)C(=O)N[C@@H](CC(=O)O)C(=O)N2CCC[C@H]2C(=O)N[C@@H](CCCNC(=N)N)C(=O)N2CCC[C@H]2C(=O)N[C@@H](CC(N)=O)C(=O)N[C@@H](C)C(=O)N2CCC[C@H]2C(=O)N[C@@H](CO)C(=O)N[C@H](C(=O)N[C@@H](CO)C(=O)N[C@@H](C)C(=O)O)[C@@H](C)O)NC(=O)CNC(=O)[C@H](CC(C)C)NC(=O)[C@H](CC(N)=O)NC(=O)[C@H](CO)NC(=O)[C@H](C(C)C)NC(=O)[C@H](Cc2c[nH]cn2)NC(=O)[C@H](CC(N)=O)NC(=O)[C@H]([C@@H](C)CC)NC(=O)[C@H](CCCNC(=N)N)NC(=O)[C@H](CC(=O)O)NC1=O", "note": "[DNP, reference compound] (H-EVKYDPCFGHKIDRINHVSNLGCPSLRDPRPNAPSTSA-OH; disulfide 7-23; N-terminus and C-terminus assumed)", "values": [{"measurement": "−Log10 EC50 (pEC50) ± Standard Error", "setting": "[1]", "value": "8.080 ± 1.411"}, {"measurement": "Recovery (MAP)", "setting": "[2]; [6]", "value": 61.4, "unit": "mm Hg"}, {"measurement": "Recovery Delta SED (MAP)", "setting": "[2]; [6]", "value": "2.5 ± 1.1", "unit": "mm Hg"}, {"measurement": "Diastolic BP, Average Response SED", "setting": "[2]; [7]", "value": "−9.0 ± 0.9", "unit": "mmHg"}, {"measurement": "HR, Average Response SED", "setting": "[2]; [7]", "value": "17.3 ± 6.4", "unit": "bpm"}, {"measurement": "Mean BP (MAP), Average Response SED", "setting": "[2]; [7]", "value": "−14.2±0.8", "unit": "mmHg"}, {"measurement": "Systolic BP, Average Response SED", "setting": "[2]; [7]", "value": "−13.3 ± 0.8", "unit": "mmHg"}, {"measurement": "MAP at final dose", "setting": "[2]; highest dose, Table 10A", "value": 58.9, "unit": "mm Hg"}, {"measurement": "Treatment Effect, change of mean blood pressure during the infusion", "setting": "[2]; highest dose, Table 10A, groups 1, 2A and 3", "value": "−17.2", "unit": "mm Hg"}, {"measurement": "Diastolic BP, mean difference from control", "setting": "[2]; i.v. infusion 1.0 μg/kg/min", "value": "−8.5", "unit": "mmHg"}, {"measurement": "HR, mean difference from control", "setting": "[2]; i.v. infusion 1.0 μg/kg/min", "value": 17.5, "unit": "bpm"}, {"measurement": "Mean BP, mean difference from control", "setting": "[2]; i.v. infusion 1.0 μg/kg/min", "value": "−13.0", "unit": "mmHg"}, {"measurement": "Systolic BP, mean difference from control", "setting": "[2]; i.v. infusion 1.0 μg/kg/min", "value": "−11.7", "unit": "mmHg"}, {"measurement": "Diastolic BP, mean difference from control", "setting": "[2]; i.v. infusion 2.0 μg/kg/min", "value": "−6.9", "unit": "mmHg"}, {"measurement": "HR, mean difference from control", "setting": "[2]; i.v. infusion 2.0 μg/kg/min", "value": 25.9, "unit": "bpm"}, {"measurement": "Mean BP, mean difference from control", "setting": "[2]; i.v. infusion 2.0 μg/kg/min", "value": "−12.6", "unit": "mmHg"}, {"measurement": "Systolic BP, mean difference from control", "setting": "[2]; i.v. infusion 2.0 μg/kg/min", "value": "−11.9", "unit": "mmHg"}, {"measurement": "Diastolic BP, mean difference from control", "setting": "[2]; i.v. infusion 4.0 μg/kg/min", "value": "−11.7", "unit": "mmHg"}, {"measurement": "HR, mean difference from control", "setting": "[2]; i.v. infusion 4.0 μg/kg/min", "value": 8.5, "unit": "bpm"}, {"measurement": "Mean BP, mean difference from control", "setting": "[2]; i.v. infusion 4.0 μg/kg/min", "value": "−17.2", "unit": "mmHg"}, {"measurement": "Systolic BP, mean difference from control", "setting": "[2]; i.v. infusion 4.0 μg/kg/min", "value": "−16.4", "unit": "mmHg"}, {"measurement": "percentage relaxation of the precontraction by KCl", "setting": "[3]", "value": "~100", "unit": "%"}, {"measurement": "percentage relaxation of the precontraction by KCl", "setting": "[4]", "value": "~100", "unit": "%"}, {"measurement": "half-life at 125 μM", "setting": "[5]; plasmin in Tris/HCl-NaCl buffer, read-out: HalfLife in plasmin", "value": 29.1, "unit": "min"}, {"measurement": "K (one phase exponential decay, best fit values)", "setting": "[5]", "value": 0.02381}, {"measurement": "PLATEAU (one phase exponential decay, best fit values)", "setting": "[5]", "value": 0.1675}, {"measurement": "SPAN (one phase exponential decay, best fit values)", "setting": "[5]", "value": 0.7306}]}
